What was measured:
Assay in all cases: relative viability (nuclei count vs DMSO), 5 days (fraction); higher = more cells survive
[1] = compound: C#Cc1cccc(Nc2ncnc3cc(OCCOC)c(OCCOC)cc23)c1 [Erlotinib] + COc1cc2c(Oc3ccc(NC(=O)C4(C(=O)Nc5ccc(F)cc5)CC4)cc3F)ccnc2cc1OCCCN1CCOCC1 [Foretinib] (partner 0.25 µM)
Method in brief: (§1)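 Relative viability equals treated-well nuclei counts divided by vehicle-well nuclei counts. Counts came from 4× images of lung cancer cell lines grown in 1536-well plates for 5 days after pin-tool dosing on the day after seeding. Dosing used one drug alone or a fixed anchor-drug dose plus five library-drug doses (not always all listed) in √10 steps, and values are medians of duplicate plates.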

[2] = compound: O=C(Nc1c[nH]nc1-c1nc2ccc(CN3CCOCC3)cc2[nH]1)NC1CC1 [AT9283] + Cc1nc(Nc2ncc(C(=O)Nc3c(C)cccc3Cl)s2)cc(N2CCN(CCO)CC2)n1 [Dasatinib] (partner 0.075 µM)
Method in brief: as §1

[3] = compound: O=C(Nc1c[nH]nc1-c1nc2ccc(CN3CCOCC3)cc2[nH]1)NC1CC1 [AT9283] + CCNC(=O)c1noc(-c2cc(C(C)C)c(O)cc2O)c1-c1ccc(CN2CCOCC2)cc1 [Luminespib] (partner 0.01 µM)
Method in brief: as §1

[4] = compound: O=C(Nc1c[nH]nc1-c1nc2ccc(CN3CCOCC3)cc2[nH]1)NC1CC1 [AT9283] + Cc1cc(Nc2cc(N3CCN(C)CC3)nc(Sc3ccc(NC(=O)C4CC4)cc3)n2)n[nH]1 [Tozasertib] (partner 0.1 µM)
Method in brief: as §1

[5] = compound: C#Cc1cccc(Nc2ncnc3cc(OCCOC)c(OCCOC)cc23)c1 [Erlotinib] + CC1(C)CCC(c2ccc(Cl)cc2)=C(CN2CCN(c3ccc(C(=O)NS(=O)(=O)c4ccc(N[C@H](CCN5CCOCC5)CSc5ccccc5)c(S(=O)(=O)C(F)(F)F)c4)cc3)CC2)C1 [Navitoclax] (partner 0.5 µM)
Method in brief: as §1

## EKVX
[1]; first compound 0.02 µM
  relative viability: 0.519
[1]; first compound 0.6325 µM
  relative viability: 0.267
[1]; first compound 2 µM
  relative viability: 0.267
[2]; first compound 0.003 µM
  relative viability: 0.501
[2]; first compound 0.03 µM
  relative viability: 0.413
[2]; first compound 0.09487 µM
  relative viability: 0.241
[2]; first compound 0.3 µM
  relative viability: 0.195
[3]; first compound 0.003 µM
  relative viability: 0.874
[3]; first compound 0.03 µM
  relative viability: 0.836
[3]; first compound 0.09487 µM
  relative viability: 0.555
[3]; first compound 0.3 µM
  relative viability: 0.307
[4]; first compound 0.003 µM
  relative viability: 0.377
[4]; first compound 0.03 µM
  relative viability: 0.312
[4]; first compound 0.09487 µM
  relative viability: 0.317
[4]; first compound 0.3 µM
  relative viability: 0.183
[5]; first compound 0.02 µM
  relative viability: 0.939
[5]; first compound 0.2 µM
  relative viability: 0.693
[5]; first compound 0.6325 µM
  relative viability: 0.289
[5]; first compound 2 µM
  relative viability: 0.184

## COR-L23
[1]; first compound 0.02 µM
  relative viability: 1.11
[1]; first compound 0.2 µM
  relative viability: 0.947
[1]; first compound 0.6325 µM
  relative viability: 1.18
[1]; first compound 2 µM
  relative viability: 0.928
[2]; first compound 0.003 µM
  relative viability: 0.503
[2]; first compound 0.03 µM
  relative viability: 0.207
[2]; first compound 0.09487 µM
  relative viability: 0.0898
[2]; first compound 0.3 µM
  relative viability: 0.101
[3]; first compound 0.003 µM
  relative viability: 0.73
[3]; first compound 0.03 µM
  relative viability: 0.27
[3]; first compound 0.09487 µM
  relative viability: 0.151
[3]; first compound 0.3 µM
  relative viability: 0.165
[4]; first compound 0.003 µM
  relative viability: 0.278
[4]; first compound 0.03 µM
  relative viability: 0.135
[4]; first compound 0.09487 µM
  relative viability: 0.112
[4]; first compound 0.3 µM
  relative viability: 0.132
[5]; first compound 0.02 µM
  relative viability: 1.16
[5]; first compound 0.2 µM
  relative viability: 1.04
[5]; first compound 0.6325 µM
  relative viability: 1.08
[5]; first compound 2 µM
  relative viability: 1

## NCI-H2228
[1]; first compound 0.02 µM
  relative viability: 0.897
[1]; first compound 0.2 µM
  relative viability: 0.885
[1]; first compound 0.6325 µM
  relative viability: 0.946
[1]; first compound 2 µM
  relative viability: 0.815
[2]; first compound 0.003 µM
  relative viability: 0.491
[2]; first compound 0.03 µM
  relative viability: 0.503
[2]; first compound 0.09487 µM
  relative viability: 0.307
[2]; first compound 0.3 µM
  relative viability: 0.0747
[3]; first compound 0.003 µM
  relative viability: 0.152
[3]; first compound 0.03 µM
  relative viability: 0.123
[3]; first compound 0.09487 µM
  relative viability: 0.162
[3]; first compound 0.3 µM
  relative viability: 0.11
[4]; first compound 0.003 µM
  relative viability: 0.333
[4]; first compound 0.03 µM
  relative viability: 0.199
[4]; first compound 0.09487 µM
  relative viability: 0.142
[4]; first compound 0.3 µM
  relative viability: 0.138
[5]; first compound 0.02 µM
  relative viability: 1.28
[5]; first compound 0.2 µM
  relative viability: 0.909
[5]; first compound 0.6325 µM
  relative viability: 0.679
[5]; first compound 2 µM
  relative viability: 0.676

## NCI-H647
[1]; first compound 0.02 µM
  relative viability: 1.13
[1]; first compound 0.2 µM
  relative viability: 1.04
[1]; first compound 0.6325 µM
  relative viability: 1.32
[1]; first compound 2 µM
  relative viability: 1.04
[2]; first compound 0.003 µM
  relative viability: 0.15
[2]; first compound 0.03 µM
  relative viability: 0.114
[2]; first compound 0.09487 µM
  relative viability: 0.036
[2]; first compound 0.3 µM
  relative viability: 0.0661
[3]; first compound 0.003 µM
  relative viability: 0.152
[3]; first compound 0.03 µM
  relative viability: 0.201
[3]; first compound 0.09487 µM
  relative viability: 0.169
[3]; first compound 0.3 µM
  relative viability: 0.183
[4]; first compound 0.003 µM
  relative viability: 0.307
[4]; first compound 0.03 µM
  relative viability: 0.14
[4]; first compound 0.09487 µM
  relative viability: 0.117
[4]; first compound 0.3 µM
  relative viability: 0.118
[5]; first compound 0.02 µM
  relative viability: 1.42
[5]; first compound 0.2 µM
  relative viability: 0.955
[5]; first compound 0.6325 µM
  relative viability: 1.5
[5]; first compound 2 µM
  relative viability: 0.991

## NCI-H1651
[1]; first compound 0.02 µM
  relative viability: 0.704
[1]; first compound 0.2 µM
  relative viability: 0.753
[1]; first compound 2 µM
  relative viability: 0.753
[2]; first compound 0.003 µM
  relative viability: 0.442
[2]; first compound 0.03 µM
  relative viability: 0.368
[2]; first compound 0.09487 µM
  relative viability: 0.319
[2]; first compound 0.3 µM
  relative viability: 0.212
[3]; first compound 0.003 µM
  relative viability: 0.725
[3]; first compound 0.03 µM
  relative viability: 0.826
[3]; first compound 0.09487 µM
  relative viability: 0.773
[3]; first compound 0.3 µM
  relative viability: 0.623
[4]; first compound 0.003 µM
  relative viability: 0.699
[4]; first compound 0.03 µM
  relative viability: 0.638
[4]; first compound 0.09487 µM
  relative viability: 0.506
[4]; first compound 0.3 µM
  relative viability: 0.316
[5]; first compound 0.02 µM
  relative viability: 1.04
[5]; first compound 0.2 µM
  relative viability: 0.861
[5]; first compound 0.6325 µM
  relative viability: 1.11
[5]; first compound 2 µM
  relative viability: 0.934

## NCI-H1993
[1]; first compound 0.02 µM
  relative viability: 0.772
[1]; first compound 0.2 µM
  relative viability: 0.736
[1]; first compound 0.6325 µM
  relative viability: 0.578
[1]; first compound 2 µM
  relative viability: 0.716
[2]; first compound 0.003 µM
  relative viability: 0.618
[2]; first compound 0.03 µM
  relative viability: 0.557
[2]; first compound 0.09487 µM
  relative viability: 0.462
[2]; first compound 0.3 µM
  relative viability: 0.448
[3]; first compound 0.003 µM
  relative viability: 0.977
[3]; first compound 0.03 µM
  relative viability: 0.521
[3]; first compound 0.09487 µM
  relative viability: 0.523
[3]; first compound 0.3 µM
  relative viability: 0.45
[4]; first compound 0.003 µM
  relative viability: 0.6
[4]; first compound 0.03 µM
  relative viability: 0.571
[4]; first compound 0.09487 µM
  relative viability: 0.611
[4]; first compound 0.3 µM
  relative viability: 0.491
[5]; first compound 0.02 µM
  relative viability: 0.848
[5]; first compound 0.2 µM
  relative viability: 0.725
[5]; first compound 0.6325 µM
  relative viability: 0.786
[5]; first compound 2 µM
  relative viability: 0.722

## HCC-827
[1]; first compound 0.02 µM
  relative viability: 0.263
[1]; first compound 0.2 µM
  relative viability: 0.158
[1]; first compound 0.6325 µM
  relative viability: 0.154
[1]; first compound 2 µM
  relative viability: 0.135
[2]; first compound 0.003 µM
  relative viability: 0.271
[2]; first compound 0.03 µM
  relative viability: 0.266
[2]; first compound 0.09487 µM
  relative viability: 0.26
[2]; first compound 0.3 µM
  relative viability: 0.205
[3]; first compound 0.003 µM
  relative viability: 0.608
[3]; first compound 0.03 µM
  relative viability: 0.539
[3]; first compound 0.09487 µM
  relative viability: 0.328
[3]; first compound 0.3 µM
  relative viability: 0.185
[4]; first compound 0.003 µM
  relative viability: 0.409
[4]; first compound 0.03 µM
  relative viability: 0.374
[4]; first compound 0.09487 µM
  relative viability: 0.337
[4]; first compound 0.3 µM
  relative viability: 0.257
[5]; first compound 0.02 µM
  relative viability: 0.465
[5]; first compound 0.2 µM
  relative viability: 0.167
[5]; first compound 0.6325 µM
  relative viability: 0.162
[5]; first compound 2 µM
  relative viability: 0.172

## SK-LU-1
[1]; first compound 0.02 µM
  relative viability: 0.961
[1]; first compound 0.2 µM
  relative viability: 0.975
[1]; first compound 0.6325 µM
  relative viability: 0.997
[1]; first compound 2 µM
  relative viability: 0.699
[2]; first compound 0.003 µM
  relative viability: 0.217
[2]; first compound 0.03 µM
  relative viability: 0.124
[2]; first compound 0.09487 µM
  relative viability: 0.0747
[2]; first compound 0.3 µM
  relative viability: 0.0888
[3]; first compound 0.003 µM
  relative viability: 0.203
[3]; first compound 0.03 µM
  relative viability: 0.203
[3]; first compound 0.09487 µM
  relative viability: 0.209
[3]; first compound 0.3 µM
  relative viability: 0.157
[4]; first compound 0.003 µM
  relative viability: 0.359
[4]; first compound 0.03 µM
  relative viability: 0.301
[4]; first compound 0.09487 µM
  relative viability: 0.253
[4]; first compound 0.3 µM
  relative viability: 0.267
[5]; first compound 0.02 µM
  relative viability: 1.07
[5]; first compound 0.2 µM
  relative viability: 1.36
[5]; first compound 0.6325 µM
  relative viability: 0.752
[5]; first compound 2 µM
  relative viability: 0.733

From the supplement of paper PMC10307832
